# Laboratory results taken from patent US20190364889A1, “Application of Enhancer in Shortening the Half Life of and/or Time for Complete Degradation of Pesticide Residue” (priority 2016, published 2019).
# Conditions: in vivo
smiles,measurement,value
CCOCN(C(=O)CCl)c1c(C)cccc1CC [acetochlor],complete degradation time,~21 days
